What was measured:
786-0 = test: Growth inhibitory concentration against tumor cells in culture renal cancer […] cell line; type: functional, Homo sapiens
ACHN = test: Inhibitory activity against kidney A-CHN tumor cell growth in culture; type: functional, cell-based; details: Homo sapiens
Homo sapiens = species on record: Homo sapiens; test: (§1) Activity is determined as substrate for CCRF-CEM human leukemia cell folyl-poly-glutamate synthetase; type: ADME
[1] = tested on: folylpolyglutamate synthetase (FPGS); test: as §1; type: ADME; details: folylpolyglutamate synthetase from CCRF-CEM leukemia cells
CCRF-CEM [2] = test: Growth inhibition of methotrexate resistant human T-lymphoblastic leukemia cell subline CEM/MTX; type: functional, cell-based
CCRF-CEM [3] = test: Growth inhibition of human T-lymphoblastic leukemia cell line CCRF-CEM; type: functional, cell-based
CCRF-CEM [4] = test: Inhibitory activity against CCRF-CEM tumor cell growth in culture; type: functional, cell-based; details: Homo sapiens
Dihydrofolate reductase [5] = biological target: T1, Dihydrofolate reductase (Pneumocystis carinii, UniProt P16184); test: Inhibitory concentration for DHFR in Pneumocystis carinii
T1 sequence (P16184 whole entry): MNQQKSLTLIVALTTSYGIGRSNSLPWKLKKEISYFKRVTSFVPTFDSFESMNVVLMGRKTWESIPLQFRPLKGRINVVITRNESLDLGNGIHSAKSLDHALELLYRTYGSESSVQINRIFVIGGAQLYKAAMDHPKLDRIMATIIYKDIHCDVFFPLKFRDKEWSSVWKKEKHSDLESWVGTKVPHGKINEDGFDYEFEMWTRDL

Dihydrofolate reductase [6] = biological target: T2, Dihydrofolate reductase (Homo sapiens, UniProt P00374); test: Inhibitory concentration for DHFR in recombinant human
T2 sequence (P00374 whole entry): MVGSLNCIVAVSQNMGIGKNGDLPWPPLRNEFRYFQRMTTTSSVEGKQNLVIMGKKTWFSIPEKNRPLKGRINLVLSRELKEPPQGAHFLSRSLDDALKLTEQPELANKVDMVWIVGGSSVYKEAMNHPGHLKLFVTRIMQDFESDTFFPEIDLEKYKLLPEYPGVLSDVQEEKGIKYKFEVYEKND

FaDu [7] = test: Protection of FaDu cells from growth inhibitory effects of compound by combination of 50 uM hypoxanthine (Hx) and 40 uM thymidine (TdR); type: functional, Homo sapiens; set-up: scale not given: the % may be the effect or the level left
FaDu [8] = test: Protection of FaDu cells from growth inhibitory effects of compound with no addition; type: functional, Homo sapiens; set-up: scale not given: the % may be the effect or the level left
FaDu [9] = test: Growth inhibition of human squamous cell carcinoma FaDu; type: functional, cell-based
FaDu [10] = test: Protection of FaDu cells from growth inhibitory effects of compound by 10 uM leucovorin (LV); type: functional, Homo sapiens; set-up: scale not given: the % may be the effect or the level left
FaDu [11] = test: Protection of FaDu cells from growth inhibitory effects of compound by 40 uM thymidine (TdR); type: functional, Homo sapiens; set-up: scale not given: the % may be the effect or the level left
FaDu [12] = test: Protection of FaDu cells from growth inhibitory effects of compound by 50 uM hypoxanthine (Hx); type: functional, Homo sapiens; set-up: scale not given: the % may be the effect or the level left
HL-60 = test: Growth inhibitory concentration against tumor cells in culture leukemia cell line, HL-60(TB); type: functional, Homo sapiens
HCT-116 = test: Growth inhibitory concentration against tumor cells in culture colon cancer HCT116; type: functional, Homo sapiens
IGROV-1 = test: Growth inhibitory concentration against tumor cells in culture ovarian cancer IGROV-1; type: functional, Homo sapiens
K562 = test: Growth inhibitory concentration against tumor cells in culture leukemia cell line, K-562; type: functional, Homo sapiens
MCF7 = test: Growth inhibitory concentration against tumor cells in culture breast cancer cell line, MCF-7; type: functional, Homo sapiens
LOX IMVI = test: Growth inhibitory concentration against tumor cells in culture melanoma LOX-IMVI; type: functional, Homo sapiens
MDA-N = test: Growth inhibitory concentration against tumor cells in culture breast cancer cell line, MDA-N; type: functional, Homo sapiens
MDA-MB-435 = test: Growth inhibitory concentration against tumor cells in culture breast cancer cell line, MDA-MB-435; type: functional, Homo sapiens
NCI-H460 = test: Growth inhibitory concentration against tumor cells in culture non-small-cell-lung NCI-H460; type: functional, Homo sapiens
PC-3 = test: Growth inhibitory concentration against tumor cells in culture prostate cancer PC-3; type: functional, Homo sapiens
R30dm-CCRF-CEM [13] = test: Growth inhibition of methotrexate resistant human T-lymphoblastic leukemia cell subline R30dm; type: functional, cell-based
SF-268 = test: Growth inhibitory concentration against tumor cells in culture CNS cancer cell line, SF-268; type: functional, Homo sapiens
SK-5 = test: Inhibitory activity against melanoma SK-5 tumor cell growth in culture; type: functional, cell-based; details: Homo sapiens
Thymidylate synthase [14] = biological target: Thymidylate synthase (Lactobacillus casei, UniProt P00469); test: Inhibitory concentration for TS in Lactobacillus casei; set-up: species or system Lacticaseibacillus casei
U-251 = test: Growth inhibitory concentration against tumor cells in cultureCNS cancer cell line, U-251; type: functional, Homo sapiens
Thymidylate synthase [15] = biological target: Thymidylate synthase (Homo sapiens, UniProt P04818); test: Inhibitory concentration for TS in human
Dihydrofolate reductase [16] = biological target: Dihydrofolate reductase (Lactobacillus casei, UniProt P00381)
Description: Inhibitory concentration for DHFR in Lactobacillus casei

Dihydrofolate reductase [17] = biological target: T3, Dihydrofolate reductase (Rattus norvegicus, UniProt Q920D2)
T3 sequence (Q920D2 whole entry): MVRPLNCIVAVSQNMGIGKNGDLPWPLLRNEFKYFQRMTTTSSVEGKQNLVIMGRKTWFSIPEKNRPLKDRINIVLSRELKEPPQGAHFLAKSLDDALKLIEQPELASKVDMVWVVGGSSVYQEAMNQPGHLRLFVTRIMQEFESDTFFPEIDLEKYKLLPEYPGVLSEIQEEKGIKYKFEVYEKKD
Description: Inhibitory concentration for DHFR in rat liver

[18] = biological target: T4, Bifunctional dihydrofolate reductase-thymidylate synthase (Toxoplasma gondii, UniProt Q07422)
T4 sequence (Q07422 whole entry): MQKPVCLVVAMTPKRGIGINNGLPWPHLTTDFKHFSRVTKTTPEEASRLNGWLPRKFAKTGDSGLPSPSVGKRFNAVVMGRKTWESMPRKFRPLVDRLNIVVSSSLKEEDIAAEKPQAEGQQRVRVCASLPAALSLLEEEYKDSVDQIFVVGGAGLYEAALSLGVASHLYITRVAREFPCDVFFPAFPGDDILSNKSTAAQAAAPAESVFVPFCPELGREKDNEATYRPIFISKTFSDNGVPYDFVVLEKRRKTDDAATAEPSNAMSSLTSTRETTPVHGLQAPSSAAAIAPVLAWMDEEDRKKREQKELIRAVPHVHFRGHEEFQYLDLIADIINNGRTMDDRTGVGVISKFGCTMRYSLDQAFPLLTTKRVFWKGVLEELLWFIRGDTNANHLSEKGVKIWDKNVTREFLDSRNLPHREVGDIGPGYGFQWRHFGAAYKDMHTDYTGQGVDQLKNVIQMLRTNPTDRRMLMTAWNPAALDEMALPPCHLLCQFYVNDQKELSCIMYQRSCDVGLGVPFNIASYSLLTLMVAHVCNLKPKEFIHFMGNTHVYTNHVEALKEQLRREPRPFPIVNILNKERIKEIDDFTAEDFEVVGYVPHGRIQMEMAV
Description: Inhibitory concentration for DHFR in Toxoplasma gondii

FaDu [19] = test: the growth inhibition of, (during continuous exposure) human squamous cell carcinoma FaDu at resistance mechanism - sensitive
R30dm-CCRF-CEM [20] = test: the growth inhibition of, (during continuous exposure) methotrexate resistant human T-lymphoblastic leukemia cell subline R30dm at resistance mechanism - decreased FPGS; type: functional, cell-based

Sequence of Dihydrofolate reductase (Lactobacillus casei, UniProt P00381) (P00381 whole entry): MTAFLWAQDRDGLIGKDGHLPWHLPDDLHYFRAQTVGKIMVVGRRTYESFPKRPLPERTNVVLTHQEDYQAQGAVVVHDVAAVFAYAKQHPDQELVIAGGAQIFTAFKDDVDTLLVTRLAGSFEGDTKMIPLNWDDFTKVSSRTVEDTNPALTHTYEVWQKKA
Sequence of Thymidylate synthase (Homo sapiens, UniProt P04818) (P04818 whole entry): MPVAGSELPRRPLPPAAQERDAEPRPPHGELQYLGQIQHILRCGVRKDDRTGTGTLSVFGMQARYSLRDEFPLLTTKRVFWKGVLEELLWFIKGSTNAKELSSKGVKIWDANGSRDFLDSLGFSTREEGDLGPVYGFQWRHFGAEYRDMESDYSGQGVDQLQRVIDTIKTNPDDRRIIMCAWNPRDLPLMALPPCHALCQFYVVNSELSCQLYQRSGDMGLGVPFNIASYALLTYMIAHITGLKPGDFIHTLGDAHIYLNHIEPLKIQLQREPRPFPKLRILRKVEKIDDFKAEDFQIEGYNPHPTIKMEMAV
Sequence of Thymidylate synthase (Lactobacillus casei, UniProt P00469) (P00469 whole entry): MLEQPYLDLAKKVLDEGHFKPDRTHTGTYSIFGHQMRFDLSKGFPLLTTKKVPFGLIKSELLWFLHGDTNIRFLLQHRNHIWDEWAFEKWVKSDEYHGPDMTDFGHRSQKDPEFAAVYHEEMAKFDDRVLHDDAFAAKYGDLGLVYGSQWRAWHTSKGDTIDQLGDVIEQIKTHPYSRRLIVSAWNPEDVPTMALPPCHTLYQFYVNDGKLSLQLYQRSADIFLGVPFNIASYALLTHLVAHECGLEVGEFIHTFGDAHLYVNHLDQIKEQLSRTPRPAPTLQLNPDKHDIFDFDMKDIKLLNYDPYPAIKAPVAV

| Structure (SMILES) | IC50 (ACHN) | Vmax (Homo sapiens) | Km [1] | IC50 (CCRF-CEM [4]) | IC50 (Dihydrofolate reductase [5]) | IC50 (Dihydrofolate reductase [6]) | Control (FaDu [7]) | Control (FaDu [8]) | Control (FaDu [10]) | Control (FaDu [11]) | Control (FaDu [12]) | IC50 (SK-5) | IC50 (Dihydrofolate reductase [16]) | IC50 (Dihydrofolate reductase [17]) | IC50 [18] | also measured |
| --- | --- | --- | --- | --- | --- | --- | --- | --- | --- | --- | --- | --- | --- | --- | --- | --- |
| Nc1nc(N)c2c(CNc3ccc(C(=O)NC(CCC(=O)O)C(=O)O)cc3)coc2n1 (configuration not stated) | > 100 µM | 0.45 rel | 1.9 µM | 0.59 µM | 0.9 µM | 0.45 µM | 82% | 4.9% | 110% | 18.4% | 4.5% | > 100 µM | 0.56 µM | 1.3 µM | 0.7 µM | IG50 (786-0): 0.91 µM; EC50 (CCRF-CEM [2]): 3.17 µM; EC50 (CCRF-CEM [3]): 0.142 µM; EC50 (FaDu [9]): 0.126 µM; IG50 (HL-60): 0.02 µM; IG50 (HCT-116): 0.09 µM; IG50 (IGROV-1): >100 µM; IG50 (K562): 0.06 µM; IG50 (MCF7): 6.31 µM; IG50 (LOX IMVI): 1.23 µM; IG50 (MDA-N): 1.73 µM; IG50 (MDA-MB-435): 45.8 µM; IG50 (NCI-H460): 3.75 µM; IG50 (PC-3): 0.7 µM; EC50 (R30dm-CCRF-CEM [13]): 0.663 µM; IG50 (SF-268): 1.77 µM; IC50 (Thymidylate synthase [14]): > 200 µM; IG50 (U-251): 1.97 µM; IC50 (Thymidylate synthase [15]): > 200 µM |
| Nc1nc(N)c2c(CNc3ccc(Cl)c(Cl)c3)coc2n1 | > 150 µM | – | – | 40.9 µM | > 35 µM | > 15 µM | – | – | – | – | – | > 150 µM | > 3 µM | 35.2 µM | – | – |
| CN(Cc1cnc2nc(N)nc(N)c2n1)c1ccc(C(=O)N[C@@H](CCC(=O)O)C(=O)O)cc1 [METHOTREXATE] | – | – | – | – | – | – | 98% | 2.5% | 114% | 7.3% | 11% | – | – | – | – | EC50 (FaDu [19]): 0.019 µM; EC50 (R30dm-CCRF-CEM [20]): 0.018 µM |
| Nc1nc(N)c2c(CNc3cc(Cl)c(Cl)c(Cl)c3)coc2n1 | 40.9 µM | – | – | 10.6 µM | 8.3 µM | > 25 µM | – | – | – | – | – | 47.6 µM | > 25 µM | 25.6 µM | > 3.9 µM | – |
| COc1ccc(OC)c(NCc2coc3nc(N)nc(N)c23)c1 | > 160 µM | – | – | 132 µM | > 21 µM | > 15 µM | – | – | – | – | – | > 160 µM | > 31 µM | > 21 µM | > 21 µM | – |
| Nc1nc(N)c2nc(CNc3ccc(C(=O)N[C@@H](CCC(=O)O)C(=O)O)cc3)cnc2n1 [AMINOPTERIN] | – | 1 rel | 6.8 µM | – | – | – | – | – | – | – | – | – | – | – | – | – |
| CN(Cc1coc2nc(N)nc(N)c12)c1ccc(C(=O)NC(CCC(=O)O)C(=O)O)cc1 (configuration not stated) | 0.837 µM | 0.75 rel | 4.65 µM | 0.043 µM | 0.035 µM | – | 80% | 6.6% | 106% | 17.1% | 1.9% | 14 µM | 0.22 µM | 0.43 µM | 19.8 µM | IG50 (786-0): 0.07 µM; EC50 (CCRF-CEM [2]): 2.27 µM; EC50 (CCRF-CEM [3]): 0.047 µM; EC50 (FaDu [9]): 0.055 µM; IG50 (HL-60): <0.01 µM; IG50 (HCT-116): 0.02 µM; IG50 (IGROV-1): 0.73 µM; IG50 (K562): 0.024 µM; IG50 (MCF7): 0.08 µM; IG50 (LOX IMVI): 0.04 µM; IG50 (MDA-N): 0.065 µM; IG50 (MDA-MB-435): 0.09 µM; IG50 (NCI-H460): 0.15 µM; IG50 (PC-3): <0.01 µM; EC50 (R30dm-CCRF-CEM [13]): 1.03 µM; IG50 (SF-268): 0.59 µM; IC50 (Thymidylate synthase [14]): > 200 µM; IG50 (U-251): 0.75 µM; IC50 (Thymidylate synthase [15]): > 200 µM |
| COc1cc(NCc2coc3nc(N)nc(N)c23)cc(OC)c1OC | > 130 µM | – | – | 111 µM | > 4 µM | > 26 µM | – | – | – | – | – | > 130 µM | > 26 µM | > 37 µM | 4 µM | – |

From ChEMBL document CHEMBL1127819, “Classical and nonclassical furo[2,3-d]pyrimidines as novel antifolates: synthesis and biological activities” (J Med Chem, 1994)
